Measured values published in ChEMBL document CHEMBL1159333, “Halogenated metabolites from the new Okinawan red alga Laurencia yonaguniensis” (J Nat Prod, 2002).
Active and inactive are the calls of the source. The calls are words filed in the database; no cut-off is given here.

What was measured:
Halomonas aquamarina = assay: Antibacterial activity against Alcaligenes aquamarinus at 100 ug/disk after 24 hrs by paper disk diffusion assay; format: functional, organism-based; settings: Vreelandella aquamarina
[1] = Toxicity against Artemia salina nauplii after 24 hrs; format: organism-based; settings: in vivo
Escherichia coli = assay: Antibacterial activity against Escherichia coli at 100 ug/disk after 24 hrs by paper disk diffusion assay; format: functional, organism-based

With `C#C/C=C\C[C@@H]1O[C@H](/C=C/C)C/C=C\C[C@@H]1Cl` the Activity (Halomonas aquamarina) was “inactive”, the LC50 at 24 h [1] was 467 µM and the Activity (Escherichia coli) was “inactive”.

With `CC1(C)[C@H](Br)C[C@H](O)[C@]1(C)[C@@]1(O)CC[C@]2(C)[C@@H](Br)CC[C@@](C)(O)[C@@]2(O)C1` [NEOIRIETETRAOL] the Activity (Halomonas aquamarina) was “Active”, the LC50 at 24 h [1] was 40.1 µM and the Activity (Escherichia coli) was “Active”.
